The values that follow come from patent publication US4824936A, “(19-Alanine) calcitonin” (Rorer Pharmaceutical Corporation, priority 1987, dated 1989).

Bridge positions count the residues as written; N and C are the ends. Peptide text beside a SMILES is read from it.

The conditions of assay [1]: literature values; cited from earlier work.
The subject of assay [2] is serum calcium concentration.
Procedure: Biological Assay of Calcitonin Analogs in Vivo
Rats were divided into four groups of seven animals, and each group was assigned at random to a dose of standard or test solution. Low and high doses were chosen from the linear portion of the dose-response curve. For the salmon calcitonin standard, the values were 0.7 and 2.1 mcg. peptide/100 g. body weight (BW). This dose approximates 3 and 9 MU/100 g. […] Peptides were given by subcutaneous injection (0.2 ml/100 g. BW) and blood was withdrawn 1 hour later for serum calcium determination. Sera are processed and analyzed within two hours of collection.

Regarding “(1,7-alpha-L-amino-suberic acid) eel calcitonin”, in assay [1], the hypocalcemic potency result is recorded as “about 3400 IU/mg”.

As to “eel calcitonin [synthetic eel calcitonin]”, the hypocalcemic potency result in assay [1] was “around 4300 IU/mg”.

For `CC(C)C[C@H](NC(=O)[C@H](CCCCN)NC(=O)CNC(=O)[C@H](CC(C)C)NC(=O)[C@@H](NC(=O)[C@@H]1CSSC[C@H](N)C(=O)N[C@@H](CO)C(=O)N[C@@H](CC(N)=O)C(=O)N[C@@H](CC(C)C)C(=O)N[C@@H](CO)C(=O)N[C@@H]([C@@H](C)O)C(=O)N1)C(C)C)C(=O)N[C@@H](CO)C(=O)N[C@@H](CCC(N)=O)C(=O)N[C@@H](CCC(=O)O)C(=O)N[C@@H](CC(C)C)C(=O)N[C@@H](Cc1c[nH]cn1)C(=O)N[C@@H](CCCCN)C(=O)N[C@@H](CC(C)C)C(=O)N[C@@H](CCC(N)=O)C(=O)N[C@H](C(=O)N[C@@H](Cc1ccc(O)cc1)C(=O)N1CCC[C@H]1C(=O)N[C@@H](CCCNC(=N)N)C(=O)N[C@H](C(=O)N[C@@H](CC(N)=O)C(=O)N[C@H](C(=O)NCC(=O)N[C@@H](CO)C(=O)NCC(=O)N[C@H](C(=O)N1CCC[C@H]1C(N)=O)[C@@H](C)O)[C@@H](C)O)[C@@H](C)O)[C@@H](C)O` [standard salmon calcitonin, Salmon calcitonin], the “biological potency of the standard, independently determined” value in assay [2] (standard used in the assay, independently determined) was “greater than 4,000 IU/mg”.

With `CC(C)C[C@H](NC(=O)[C@H](CCCCN)NC(=O)CNC(=O)[C@H](CC(C)C)NC(=O)[C@@H](NC(=O)[C@@H]1CSSC[C@H](N)C(=O)N[C@@H](CO)C(=O)N[C@@H](CC(N)=O)C(=O)N[C@@H](CC(C)C)C(=O)N[C@@H](CO)C(=O)N[C@@H]([C@@H](C)O)C(=O)N1)C(C)C)C(=O)N[C@@H](CO)C(=O)N[C@@H](CCC(N)=O)C(=O)N[C@@H](CCC(=O)O)C(=O)N[C@@H](CC(C)C)C(=O)N[C@@H](Cc1c[nH]cn1)C(=O)N[C@@H](CCCCN)C(=O)N[C@@H](C)C(=O)N[C@@H](CCC(N)=O)C(=O)N[C@H](C(=O)N[C@@H](Cc1ccc(O)cc1)C(=O)N1CCC[C@H]1C(=O)N[C@@H](CCCNC(=N)N)C(=O)N[C@H](C(=O)N[C@@H](CC(N)=O)C(=O)N[C@H](C(=O)NCC(=O)N[C@@H](CO)C(=O)NCC(=O)N[C@H](C(=O)N1CCC[C@H]1C(N)=O)[C@@H](C)O)[C@@H](C)O)[C@@H](C)O)[C@@H](C)O` [[Ala^19]SCT, [19-Alanine] salmon calcitonin] (H-CSNLSTCVLGKLSQELHKAQTYPRTNTGSGTP-NH2; disulfide 1-7), in assay [2] (rat, in vivo, sc), the biological potency turned out to be 5400 IU/mg.
